Biological target: T1, human adenosine A2A receptor (Homo sapiens, UniProt P29274)
T1 construct: expressed in transfected cells; host or cells: CHO cells, semliki forest virus expression system; membrane preparation
Experiment: Human adenosine A2A receptor [3H]-SCH-583261 binding assay (SPA, CHO cell membranes)
Details: [3H]-SCH-583261 1 nM, membranes of CHO cells expressing the recombinant receptor, Ki by Cheng-Prussoff equation; for Ki: read-out: hA2 (pKi) (converted)
Procedure: Human Adenosine A2A Receptor
The human adenosine A2A receptor was recombinantly expressed in chinese hamster ovary (CHO) cells using the semliki forest virus expression system. Cells were harvested, washed twice by centrifugation, homogenised and again washed by centrifugation. The final washed membrane pellet was suspended in a Tris (50 mM) buffer containing 120 mM NaCl, 5 mM KCl, 2 mM CaCl2 and 10 mM MgCl2 (pH 7.4) (buffer A). The [^3H]-SCH-583261 (Dionisotti et al., 1997, Br J Pharmacol 121, 353; 1 nM) binding assay was carried out in 96-well plates in the presence of 2.5 μg of membrane protein, 0.5 mg of Ysi-poly-1-lysine SPA beads and 0.1 U adenosine deaminiase in a final volume of 200 μl of buffer A. Non-specific binding was defined using xainthine amine congener (XAC; 2 μM). Compounds were tested at 10 concentrations from 10 μM-0.3 nM. All assays were conducted in duplicate and repeated at least two times. Assay plates were incubated for 1 hour at room temperature before centrifugation and then bound ligand determined using a Packard Topcount scintillation counter. IC50 values were calculated using a non-linear curve fitting program and Ki values calculated using the Cheng-Prussoff equation.

T1 sequence (P29274 whole entry): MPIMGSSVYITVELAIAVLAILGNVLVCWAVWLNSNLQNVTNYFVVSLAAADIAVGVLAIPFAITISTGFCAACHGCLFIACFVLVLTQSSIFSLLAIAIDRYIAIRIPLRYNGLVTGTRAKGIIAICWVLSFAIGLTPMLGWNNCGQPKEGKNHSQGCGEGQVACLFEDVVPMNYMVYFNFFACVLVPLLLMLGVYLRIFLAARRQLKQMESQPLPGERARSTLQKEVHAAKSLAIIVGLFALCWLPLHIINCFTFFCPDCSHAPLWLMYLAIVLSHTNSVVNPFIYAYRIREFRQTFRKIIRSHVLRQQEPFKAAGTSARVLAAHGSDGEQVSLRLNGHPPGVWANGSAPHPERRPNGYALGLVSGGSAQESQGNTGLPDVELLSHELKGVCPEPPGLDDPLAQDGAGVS

Row | Ki | hA2 (pKi) | SMILES
1 | 3.16 nM | – | COCCOc1cc(C(=O)Nc2nc3c(OC)ccc(N4CCOCC4)c3s2)ccn1 [Example 1, 2-(2-Methoxy-ethoxy)-N-(4-methoxy-7-morpholin-4-yl-benzothiazol-2-yl)-isonicotinamide]
2 | 3.09 nM | – | CCOc1cc(C(=O)Nc2nc3c(OC)ccc(N4CCOCC4)c3s2)ccn1 [Example 3, 2-Ethoxy-N-(4-methoxy-7-morpholin-4-yl-benzothiazol-2-yl)-isonicotinamide]
3 | 2.63 nM | – | COc1ccc(N2CCOCC2)c2sc(NC(=O)c3ccnc(OCc4ccccc4)c3)nc12 [Example 4, 2-Benzyloxy-N-(4-methoxy-7-morpholin-4-yl-benzothiazol-2-yl)-isonicotinamide]
4 | 2.63 nM | – | COc1cc(C(=O)Nc2nc3c(OC)ccc(N4CCOCC4)c3s2)ccn1 [Example 5, 2-Methoxy-N-(4-methoxy-7-morpholin-4-yl-benzothiazol-2-yl)-isonicotinamide]
5 | 1.15 nM | – | COc1ccc(N2CCOCC2)c2sc(NC(=O)c3ccnc(OCc4ccccn4)c3)nc12 [Example 6, N-(4-Methoxy-7-morpholin-4-yl-benzothiazol-2-yl)-2-(pyridin-2-ylmethoxy)-isonicotinamide]
6 | 1.78 nM | – | COc1ccc(N2CCOCC2)c2sc(NC(=O)c3ccnc(NCCc4ccccn4)c3)nc12 [Example 8, N-(4-Methoxy-7-morpholin-4-yl-benzothiazol-2-yl)-2-(2-pyridin-2-yl-ethylamino)-isonicotinamide]
7 | 0.724 nM | – | COc1ccc(N2CCOCC2)c2sc(NC(=O)c3ccnc(N4CCN(C)CC4)c3)nc12 [Example 10, N-(4-Methoxy-7-morpholin-4-yl-benzothiazol-2-yl)-2-(4-methyl-piperazin-1-yl)-isonicotinamide]
8 | 1.55 nM | – | COc1ccc(N2CCOCC2)c2sc(NC(=O)c3ccnc(NCc4ccccn4)c3)nc12 [Example 13, N-(4-Methoxy-7-morpholin-4-yl-benzothiazol-2-yl)-2-[(pyridin-2-ylmethyl)-amino]-isonicotinamide]
9 | 1.91 nM | – | COc1ccc(N2CCOCC2)c2sc(NC(=O)c3ccnc(NCCNC(C)=O)c3)nc12 [Example 15, 2-(2-Acetylamino-ethylamino)-N-(4-methoxy-7-morpholin-4-yl-benzothiazol-2-yl)-isonicotinamide]
10 | 2.34 nM | – | COc1ccc(N2CCOCC2)c2sc(NC(=O)c3ccnc(OCCN4CCCC4=O)c3)nc12 [Example 17, N-(4-Methoxy-7-morpholin-4-yl-benzothiazol-2-yl)-2-[2-(2-oxo-pyrrolidin-1-yl)-ethoxy]-isonicotinamide]
11 | 0.617 nM | – | COc1ccc(N2CCOCC2)c2sc(NC(=O)c3ccnc(NCCN4CCOCC4)c3)nc12 [Example 18, N-(4-Methoxy-7-morpholin-4-yl-benzothiazol-2-yl)-2-(2-morpholin-4-yl-ethylamino)-isonicotinamide]
12 | 2.24 nM | – | COc1ccc(N2CCOCC2)c2sc(NC(=O)c3ccnc(C4CCCCC4)c3)nc12 [Example 24, 2-Cyclohexyl-N-(4-methoxy-7-morpholin-4-yl-benzothiazol-2-yl)-isonicotinamide]
13 | 0.955 nM | – | COc1ccc(N2CCOCC2)c2sc(NC(=O)c3ccnc(N4CCC4)c3)nc12 [Example 26, 2-Azetidin-1-yl-N-(4-methoxy-7-morpholin-4-yl-benzothiazol-2-yl)-isonicotinamide]
14 | 1 nM | – | COc1ccc(N2CCOCC2)c2sc(NC(=O)c3ccnc(N4C[C@@H]5C[C@H]4CO5)c3)nc12 [Example 31, N-(4-Methoxy-7-morpholin-4-yl-benzothiazol-2-yl)-2-{(1S,4S)-2-oxa-5-aza-bicyclo[2.2.1]hept-5-yl}-isonicotinamide]
15 | 2 nM | – | COc1ccc(C(=O)Nc2nc3c(OC)ccc(N4CCOCC4)c3s2)cn1 [Example 35, 6-Methoxy-N-(4-methoxy-7-morpholin-4-yl-benzothiazol-2-yl)-nicotinamide]
16 | 1.02 nM | – | COc1ccc(N2CCOCC2)c2sc(NC(=O)c3ccc(NCc4ccccn4)nc3)nc12 [Example 40, N-(4-Methoxy-7-morpholin-4-yl-benzothiazol-2-yl)-6-[(pyridin-2-ylmethyl)-amino]-nicotinamide]
17 | 3.02 nM | – | COc1ccc(N2CCOCC2)c2sc(NC(=O)c3ccc(OC(C)C)nc3)nc12 [Example 44, 6-Isopropoxy-N-(4-methoxy-7-morpholin-4-yl-benzothiazol-2-yl)-nicotinamide]
18 | 2.51 nM | – | COCCNCc1cc(C(=O)Nc2nc3c(OC)ccc(N4CCOCC4)c3s2)ccn1 [Example 47, 2-[(2-Methoxy-ethylamino)-methyl]-N-(4-methoxy-7-morpholin-4-yl-benzothiazol-2-yl)-isonicotinamide]

Row | Ki | hA2 (pKi) | SMILES
19 | 1.58 nM | – | CCCCNCc1cc(C(=O)Nc2nc3c(OC)ccc(N4CCOCC4)c3s2)ccn1 [Example 52, 2-Butylaminomethyl-N-(4-methoxy-7-morpholin-4-yl-benzothiazol-2-yl)-isonicotinamide]
20 | 2 nM | – | COc1ccc(N2CCOCC2)c2sc(NC(=O)c3ccnc(CN4CCCC4)c3)nc12 [Example 54, N-(4-Methoxy-7-morpholin-4-yl-benzothiazol-2-yl)-2-pyrrolidin-1-ylmethyl-isonicotinamide]
21 | 1.58 nM | – | COc1ccc(N2CCOCC2)c2sc(NC(=O)c3ccnc(CN4CCOCC4)c3)nc12 [Example 56, N-(4-Methoxy-7-morpholin-4-yl-benzothiazol-2-yl)-2-morpholin-4-ylmethyl-isonicotinamide]
22 | 2 nM | – | CNCc1cc(C(=O)Nc2nc3c(OC)ccc(N4CCOCC4)c3s2)ccn1 [Example 58, N-(4-Methoxy-7-morpholin-4-yl-benzothiazol-2-yl)-2-methylaminomethyl-isonicotinamide]
23 | 1.58 nM | – | COc1ccc(N2CCOCC2)c2sc(NC(=O)c3ccnc(CNCCCC(=O)OC(C)(C)C)c3)nc12 [Example 62, 4-{[4-(4-Methoxy-7-morpholin-4-yl-benzothiazol-2-yl-carbamoyl)-pyridin-2-yl-methyl]-amino}-butyric Acid tert-Butyl Ester]
24 | 3.16 nM | – | COC(=O)N(C)Cc1cc(C(=O)Nc2nc3c(OC)ccc(N4CCOCC4)c3s2)ccn1 [Example 65, [4-(4-Methoxy-7-morpholin-4-yl-benzothiazol-2-yl-carbamoyl)-pyridin-2-ylmethyl]-methyl-carbamic Acid Methyl Ester]
25 | – | 8.9 | COc1ccc(N2CCCCC2)c2sc(NC(=O)c3ccnc(CN4CCCC4)c3)nc12 [Example 70, N-(4-Methoxy-7-piperidin-1-yl-benzothiazol-2-yl)-2-pyrrolidin-1-yl-methyl-isonicotinamide]
26 | – | 8.7 | COc1ccc(N2CCCCC2)c2sc(NC(=O)c3ccnc(CN4CCOCC4)c3)nc12 [Example 71, N-(4-Methoxy-7-piperidin-1-yl-benzothiazol-2-yl)-2-morpholin-4-yl-methyl-isonicotinamide]
27 | 1.82 nM | – | COc1ccc(N2CCOCC2)c2sc(NC(=O)c3ccnc(N4CCS(=O)(=O)CC4)c3)nc12 [Example 73, 2-(1,1-Dioxo-1l6-thiomorpholin-4-yl)-N-(4-methoxy-7-morpholin-4-yl-benzothiazol-2-yl)-isonicotinamide]
28 | 1.35 nM | – | COc1ccc(N2CCOCC2)c2sc(NC(=O)c3ccnc(N4CC(O)C4)c3)nc12 [Example 74, 2-(3-Hydroxy-azetidin-1-yl)-N-(4-methoxy-7-morpholin-4-yl-benzothiazol-2-yl)-isonicotinamide]
29 | 1.91 nM | – | COc1ccc(N2CCOCC2)c2sc(NC(=O)c3ccnc(N4CC(OC)C4)c3)nc12 [Example 75, 2-(3-Methoxy-azetidin-1-yl)-N-(4-methoxy-7-morpholin-4-yl-benzothiazol-2-yl)-isonicotinamide]
30 | 1.74 nM | – | CCOC1CN(c2cc(C(=O)Nc3nc4c(OC)ccc(N5CCOCC5)c4s3)ccn2)C1 [Example 76, 2-(3-Ethoxy-azetidin-1-yl)-N-(4-methoxy-7-morpholin-4-yl-benzothiazol-2-yl)-isonicotinamide]
31 | 2.88 nM | – | COc1ccc(N2CCOCC2)c2sc(NC(=O)c3ccnc(OC(C)C)c3)nc12 [Example 77, 2-Isopropoxy-N-(4-methoxy-7-morpholin-4-yl-benzothiazol-2-yl)-isonicotinamide]
32 | 2.09 nM | – | COc1ccc(N2CCOCC2)c2sc(NC(=O)c3ccnc(SC)c3)nc12 [Example 80, N-(4-Methoxy-7-morpholin-4-yl-benzothiazol-2-yl)-2-methylsulfanyl-isonicotinamide]
33 | 2.4 nM | – | CCSc1cc(C(=O)Nc2nc3c(OC)ccc(N4CCOCC4)c3s2)ccn1 [Example 81, 2-Ethylsulfanyl-N-(4-methoxy-7-morpholin-4-yl-benzothiazol-2-yl)-isonicotinamide]
34 | 1.74 nM | – | COc1ccc(N2CCOCC2)c2sc(NC(=O)c3ccnc(NCc4ccccc4)c3)nc12 [Example 83, 2-Benzylamino-N-(4-methoxy-7-morpholin-4-yl-benzothiazol-2-yl)-isonicotinamide]
35 | 2.95 nM | – | COc1ccc(N2CCOCC2)c2sc(NC(=O)c3ccnc(OC4CCCC4)c3)nc12 [Example 85, 2-Cyclopentyloxy-N-(4-methoxy-7-morpholin-4-yl-benzothiazol-2-yl)-isonicotinamide]

— patent publication US6620811B2, “Isonicotin- and nicotinamide derivatives of benzothiazoles” (Hoffmann-La Roche Inc., priority 2001, dated 2003)
